Measurements reported in publication PMC10390775, “CETP inhibitor evacetrapib enters mouse brain tissue” (Frontiers in Pharmacology, 2023).

Assays:
[1] = Semi-PBPK three-compartment model of distribution to the brain; parameters: species or system mice
Protocol: A semi-physiological-based pharmacokinetic (PBPK) model was developed to obtain more mechanistic information on the distribution of evacetrapib in the brain. First, a two-compartmental model (i.e., a plasma and a peripheral compartment) with a first-order elimination rate was fitted to describe the kinetics of the compound in plasma ([Mukherjee, 2022]) (Figure 1). Second, a third compartment was added and connected to the plasma compartment (Figure 1). The brain compartment was subdivided into vascular and tissue sub-compartments, with mass balance differential equations describing a distribution in the tissue that can be limited by diffusion as follows ([Shen, 2010]): dABrT/dt=PA∙CBrP−PA∙CBrT/PBr, (9) CBrT=ABrT/VBr1−VBrVF, (10) dABrP/dt=QBrCp−CBrP−PA∙CBrP−PA∙CBrT/PBr, (11) CBrP=ABrP/VBr∙VBrVF∙PF, (12) CBr=ABrT+ABrP/VBr, (13) where ABrT is the amount in the brain tissue, ABrP is the amount in the brain plasma, CBrP the concentration in the brain plasma, CBrT the concentration in the brain tissue subcompartment, CBr the concentration in the brain, Cp the plasma concentration, PA the permeability area product, PBr the brain-to-plasma partition coefficient, PF the plasma fraction of the blood, VBrVF the vascular volume fraction of the brain, VBr the volume of the brain, and QBr plasma flow to the brain.
Several scenarios were tested using this semi-PBPK model and brain concentration data to determine the mechanisms that best explain accumulation in the brain: 1) no permeability (i.e., PA = 0 L/h); 2) a perfusion-limited distribution (PA > 1,000,000 L/h) using the predicted PBr ([Poulin and Haddad, 2011]); 3) a perfusion-limited distribution with a low PBr (fitted); 4) a diffusion-limited distribution (fitted PA) using the predicted PBr; and 5) diffusion-limited distribution (fitted PA) and low PBr (fitted).
We used a semi-physiological three-compartment model to simulate the in vivo data (Figure 1). The parameters for the plasma and peripheral compartments were fitted to the plasma concentration at 40 mg/kg BW (Table 1; Figure 5B) ([Brown et al., 1997]; [Peyret et al., 2010]). Then, four scenarios were simulated assuming the following: a) perfusion-limited distribution with the predicted brain-to-plasma partition coefficient (PBr), b) as in a) with a low PBr, c) diffusion-limited distribution with the predicted PBr, and d) as in c) with low PBr, against the brain concentration data corrected for residual blood as explained in the Methods section. When assuming perfusion-limited distribution, the model could not simulate the observed data (Figure 5A), even when we adjusted for PBr. […] Thus, we propose that evacetrapib enters the brain in a diffusion-limited manner, which could include some form of facilitated transport.

[2] = Rapid equilibrium dialysis, plasma on both sides of the membrane; assay type: in vitro ADME; settings: after 24 h, preliminary data
From the text: One last factor we considered in this study was the mechanism by which evacetrapib is transported into brain tissue. To that effect, toxicokinetic parameters were derived from the blood and brain time courses, which indicate that the drug possibly requires some sort of transporter to reach peripheral compartments, such as the brain, and to clear from brain tissue. […] A possible explanation could be that evacetrapib enters the brain faster than it is cleared out of it, leading to a buildup in brain tissue. […] To determine which mechanisms are involved in evacetrapib distribution to the brain, a semi-PBPK model was developed (parameter values are in Table 1; Figure 5). To this end, we first aimed to determine the brain: plasma partition coefficient of evacetrapib using rapid equilibrium dialysis. […] This may be in line with our in vivo observations considering that only a small fraction of evacetrapib crossed the blood–brain barrier. However, the slow diffusion in our in vitro model is incongruent with the concentrations of evacetrapib found in the brain 2.2 h following intravenous injections. Thus, the implication of transporters cannot be excluded.

CETP in human plasma = system: CETP in human plasma; parameters: method as in Cao et al., 2011; settings: ref Cao et al., 2011, read-out: IC50 of CETP inhibition; cited from earlier work
[3] = parameters: method as in Small et al., 2015; settings: ref Small et al., 2015; cited from earlier work
[4] = continuous administration; ref Small et al., 2015; Nurmohamed et al., 2022; cited from earlier work
[5] = cited from earlier work
[6] = two-compartment model, fitted to plasma concentration at 40 mg/kg BW

## Cc1cc(C)c2c(c1)[C@@H](N(Cc1cc(C(F)(F)F)cc(C(F)(F)F)c1)c1nnn(C)n1)CCCN2C[C@H]1CC[C@H](C(=O)O)CC1 [evacetrapib]
[1]; fitted, diffusion-limited distribution
  Permeability area product (PA): 1.1e-05 L/h
[1]; male, hCETPtg (C57BL/6J background), mouse, intravenous, 40 mg/kg BW, fitted to brain concentrations corrected for residual blood, read-out: Brain:plasma partition coefficient (PBr)
  Kp: 0.06
[1]; male, hCETPtg (C57BL/6J background), mouse, intravenous, two-compartment model, fitted to plasma concentration at 40 mg/kg BW, read-out: Elimination constant (Kel) (converted)
  k el: 0.000386 s⁻¹
[1]; [6]
  Apparent plasma volume (Vplasma): 0.01 L
  Peripheral to plasma transfer constant (K21): 1.21 h⁻¹
  Plasma to peripheral transfer constant (K12): 2.4 h⁻¹
[2]
  Fraction diffused across the dialysis membrane: 2%
CETP in human plasma
  IC50: 0.036 µM
[3]
  logP (octanol to water partition coefficient): 7.56
[4]
  Accumulation in adipose tissues: does not accumulate in adipose tissues
[5]; rat, in vivo, po
  Tolerated dose: up to 600 mg/kg BW/day
[5]; rats, oral gavage, ref Takubo et al., 2014, Simic et al., 2017
  Oral absorption fraction: 25%
